Assay results taken from patent publication US10851067B2, “Kv7 channel activators compositions and methods of use” (Knopp Biosciences LLC, priority 2018, dated 2020).

Target: Kv7.2/7.3 (Homo sapiens, UniProt O43525+O43526)
Assay: Kv7.2/7.3 Activation Assay, QPatch single concentration screen
Format: cell-based
Parameters: host or cells: HEK cells, tetracycline-inducible expression
Conditions: Kv7.2/Kv7.3 co-expressing HEK cells, compound concentration 3 μM, steady-state current at end of 2 s pulse to −30 mV
Method: Kv7.2/7.3 Activation Assay
The ability of compounds to potentiate K-currents in Kv7.2/7.3 containing HEK cells was assessed using planar patch-clamp on the QPatch automated screening platform.
The hKv7.2/7.3 cell line was obtained from Chantest (Cleveland, Ohio 44128) cat. #CT6147. These HEK cells will express the Kv7.2/7.3 ion channels when induced.
Cells were maintained in a media containing DMEM/F12; 50/50 (GIBCO cat. #11330), 10% Fetal Bovine Serum (FBS) (GIBCO cat. #26140), 100 units/mL Penicillin-Streptomycin (GIBCO cat. #15140), 0.005 mg/mL Blasticidin (INVIVOGEN cat. #ant-b1-1), 0.5 mg/mL Geneticin (GIBCO cat. #10131), 0.1 mg/mL Zeocin (GIBCO cat. #R25001). Cells used in the electrophysiology assay were maintained in a media without Blasticidin, Geneticin and Zeocin for 2 days and channel expression was induced by adding tetracycline (BIOLINE cat. #BIO-87030) at a final concentration of 1 mg/mL. Cells were grown in T-175 flask to ˜75% confluency. Currents were recorded 24 hours after channel induction.
Test compounds were prepared by performing serial dilutions on a Biomek NX^P (BECKMAN COULTER). Final dilutions were made in external recording solution with a final DMSO concentration of 0.1% DMSO. For single concentration screens each plate had 10 μM retigabine as a positive control and 0.1% DMSO as a negative control.
On the day of the experiment cells were washed with Hank's Balanced Salt Solution (HBBS) (GIBCO cat. #14175) and harvested with Tryple (GIBCO cat. #12604). Cells were then centrifuged at 2000 rpm for 5 minutes and resuspended in CHO-S-SFM (GIBCO cat. #12052) at ˜3×10^6 cells/mL. Cells were stirred for 30 minutes before experiments were started. External recording solution contained (in mM): NaCl (145), KCl (4), CaCl2 (2), MgCl2 (1), HEPES (10) and Glucose (10); pH was adjusted to 7.4 with NaOH and the osmolarity was adjusted to 300-305 mOsM with sucrose if necessary. Internal solution contained (in mM): KCl (125), KF (10), EGTA (5), Na2ATP (5), MgCl2 (3.2), HEPES (5); pH was adjusted to 7.2 with KOH and the osmolarity was adjusted to 298-302 mOsM with sucrose.
Potassium channel activity was measured on the QPatch HTX (Sophion Bioscience) using QPlates with 48-wells/plate. Each cell was taken as an independent experiment and only one compound was tested per well. Potassium channel activity was elicited by holding at −80 mV and stepping to −30 mV for 2 s followed by a 100 ms pulse to −120 mV.
Single Concentration Screen:
Baseline conditions were obtained by recording 5 sweeps in the external solution only, this was repeated for three applications of the external solution. The effect of test compounds on elicited current was then assessed by recording 5 sweeps in the presence of a 3 μM compound solution. The steady-state current at the end of the 2 s pulse to −30 mV was measured to determine the fold increase from baseline.

Structure (SMILES)	Kv7.2/7.3 Activity: increase over baseline in current
CC(C)(CC(=O)Nc1nc2c(F)cc(OC(F)F)cc2n1C1(C)CCC1)C1CC1 [Example 338, 3-cyclopropyl-N-(6-(difluoromethoxy)-4-fluoro-1-(1-methylcyclobutyl)-1H-benzo[d]imidazol-2-yl)-3-methylbutanamide]	+++ (>4 (+++) fold increase over baseline)
CC1(n2c(NC(=O)CC(C)(C)C(F)(F)F)nc3cc(F)cc(C#N)c32)CCC1 [Example 340, N-(7-cyano-5-fluoro-1-(1-methylcyclobutyl)-1H-benzo[d]imidazol-2-yl)-4,4,4-trifluoro-3,3-dimethylbutanamide]	+ (1.2-2.9 (+))
[2H]C([2H])([2H])C(CC(=O)Nc1nc2c(F)cc(C(C)(C)O)cc2n1C1CCC1)(C([2H])([2H])[2H])C([2H])([2H])[2H] [Example 342, N-(1-cyclobutyl-4-fluoro-6-(2-hydroxypropan-2-yl)-1H-benzo[d]imidazol-2-yl)-3,3-bis(methyl-d3)butanamide]	+++ (>4 (+++) fold increase over baseline)
CC(C)(C)CC(=O)Nc1nc2c(F)cc(Br)cc2n1C1CCC1 [Example 343, N-(6-bromo-1-cyclobutyl-4-fluoro-1H-benzo[d]imidazol-2-yl)-3,3-dimethylbutanamide]	+++ (>4 (+++) fold increase over baseline)
CC(C)(CC(=O)Nc1nc2ccc(C#N)c(F)c2n1C1CCC1)CC(F)(F)F [Example 345, N-(6-cyano-1-cyclobutyl-7-fluoro-1H-benzo[d]imidazol-2-yl)-5,5,5-trifluoro-3,3-dimethylpentanamide]	+ (1.2-2.9 (+))
CC(C)(C)CC(=O)Nc1nc2ccc(OC(F)F)cc2n1C1(C)CCC1 [Example 346, N-(6-(difluoromethoxy)-1-(1-methylcyclobutyl)-1H-benzo[d]imidazol-2-yl)-3,3-dimethylbutanamide]	++ (3-3.9 (++))
CC(C)(C)n1c(NC(=O)CC(C)(C)C(F)(F)F)nc2c(F)cc(C#N)c(F)c21 [Example 349, N-(1-(tert-butyl)-6-cyano-4,7-difluoro-1H-benzo[d]imidazol-2-yl)-4,4,4-trifluoro-3,3-dimethylbutanamide]	++ (3-3.9 (++))
CC(C)(O)CC(=O)Nc1nc2ccc(OC(F)F)c(F)c2n1C1(C)CCC1 [Example 351, N-(6-(difluoromethoxy)-7-fluoro-1-(1-methylcyclobutyl)-1H-benzo[d]imidazol-2-yl)-3-hydroxy-3-methylbutanamide]	+ (1.2-2.9 (+))
CC(C)(CC(=O)Nc1nc2c(F)cc(C3(O)CCC3)cc2n1C1CCC1)C(F)(F)F [Example 352, N-(1-cyclobutyl-4-fluoro-6-(1-hydroxycyclobutyl)-1H-benzo[d]imidazol-2-yl)-4,4,4-trifluoro-3,3-dimethylbutanamide]	++ (3-3.9 (++))
CC(C)(O)c1ccc2nc(NC(=O)CC3CC(F)(F)C3(F)F)n(C3CCC3)c2c1 (stereo not shown) [Example 353, N-(1-cyclobutyl-6-(2-hydroxypropan-2-yl)-1H-benzo[d]imidazol-2-yl)-2-(2,2,3,3-tetrafluorocyclobutyl)acetamide]	+ (1.2-2.9 (+))
CC(C)(CC(=O)Nc1nc2ccc(C#N)cc2n1C(C)(C)C)C1CC1 [Example 354, N-(1-(tert-butyl)-6-cyano-1H-benzo[d]imidazol-2-yl)-3-cyclopropyl-3-methylbutanamide]	++ (3-3.9 (++))
COc1cc(F)c2nc(NC(=O)CC(C)(C)C)n(C3(C)CCC3)c2c1 [Example 355, N-(4-fluoro-6-methoxy-1-(1-methylcyclobutyl)-1H-benzo[d]imidazol-2-yl)-3,3-dimethylbutanamide]	+++ (>4 (+++) fold increase over baseline)
CC(C)(C)CC(=O)Nc1nc2cc(F)c(C#N)c(F)c2n1C1CCC1 [Example 356, N-(6-cyano-1-cyclobutyl-5,7-difluoro-1H-benzo[d]imidazol-2-yl)-3,3-dimethylbutanamide]	+ (1.2-2.9 (+))
